Values after ≈ are worked out from the molar mass of the structure shown.
Assays:
Assay type in all cases: functional
[1] = Antioxidant activity assessed as DPPH radical scavenging activity
[2] = Antioxidant activity assessed as superoxide dismutase-like activity measured after 20 mins by WST-based assay
Candida albicans = assay: Antimicrobial activity against Candida albicans NBRC 1594 measured after 20 hrs; conditions: NBRC 1594, 20 h
[3] = test system: Mycolicibacterium smegmatis; assay: Antimicrobial activity against Mycobacterium smegmatis NBRC 3207 measured after 20 hrs; conditions: NBRC 3207, 20 h
Kluyveromyces marxianus = assay: Antimicrobial activity against Kluyveromyces fragilis ATCC 8635 measured after 20 hrs; conditions: ATCC 8635, 20 h
Staphylococcus aureus = assay: Antimicrobial activity against Staphylococcus aureus IFO 12732 measured after 20 hrs; conditions: IFO 12732, 20 h
Kocuria rhizophila = assay: Antimicrobial activity against Kocuria rhizophila ATCC 9341 measured after 20 hrs; conditions: DC2201 
Escherichia coli = assay: Antimicrobial activity against Escherichia coli NIH-JC2 measured after 20 hrs; conditions: NIH-JC2, 20 h
Enterococcus faecalis = assay: Antimicrobial activity against Enterococcus faecalis NBRC 100480 measured after 20 hrs
Bacillus cereus = assay: Antimicrobial activity against Bacillus cereus NBRC 15305 measured after 20 hrs; conditions: NBRC 15305, 20 h

Row | SMILES | SC50 [1] [µM] | SC50 [2] [µM] | MIC (Candida albicans) [µg/mL] | MIC [3] [µg/mL] | MIC (Kluyveromyces marxianus) [µg/mL] | MIC (Staphylococcus aureus) [µg/mL] | MIC (Kocuria rhizophila) [µg/mL] | MIC (Escherichia coli) [µg/mL] | MIC (Enterococcus faecalis) [µg/mL] | MIC (Bacillus cereus) [µg/mL]
1 | Cc1c(C)c2c(c(C)c1O)CCC(C)(C(=O)O)O2 (stereo not given) | 9 |  |  |  |  |  |  |  |  | 
2 | O=C(O)c1cc(O)c(O)c(O)c1 |  | 102 |  |  |  |  |  |  |  | 
3 | COC1=CC(=O)c2c(O)c3c(c(O)c2C1=O)O[C@@]1(CCc2cc4cc(C(=O)O)oc(=O)c4c(O)c2O1)[C@H]3O |  |  | > 100 | 12.5 (≈ 23.8 µM) | > 100 | 0.4 (≈ 0.763 µM) | 50 (≈ 95.3 µM) | > 100 | > 100 | 50 (≈ 95.3 µM)
4 | CC(=O)O[C@H]1C2=C(C=C3C(=O)c4c(ccc([C@H]5CC[C@H](O)[C@@H](C)O5)c4O)C(O)=C32)C(=O)[C@@](C)(O)[C@@H]1OC(=O)CCC(=O)O | 21 | 66 |  |  |  |  |  |  |  | 
5 | COC1=CC(=O)c2c(O)c3c(c(O)c2C1=O)O[C@@]1(CCc2cc4cc(C(=O)O)oc(=O)c4c(O)c2O1)C3 |  |  | 6.3 (≈ 12.4 µM) | 3.1 (≈ 6.1 µM) | 12.5 (≈ 24.6 µM) | 0.2 (≈ 0.393 µM) | 12.5 (≈ 24.6 µM) | > 100 | 100 (≈ 197 µM) | 12.5 (≈ 24.6 µM)

— ChEMBL document CHEMBL4392883, “Konamycins A and B and Rubromycins CA1 and CA2, Aromatic Polyketides from the Tunicate-Derived Streptomyces hyaluromycini MB-PO13T” (2019)
